Results from ChEMBL document CHEMBL1201862, “PubChem BioAssay data set” (2004).
The source made the active and inactive calls.

Tests used:
[1] = molecular target: T1, Replicative DNA helicase DnaB (Mycobacterium tuberculosis, UniProt P9WMR3); test: DnaB intein splicing inhibitors, dose response, biochemical, cell-free fluorescence (AID 449749); format: functional
T1 sequence (P9WMR3 whole entry): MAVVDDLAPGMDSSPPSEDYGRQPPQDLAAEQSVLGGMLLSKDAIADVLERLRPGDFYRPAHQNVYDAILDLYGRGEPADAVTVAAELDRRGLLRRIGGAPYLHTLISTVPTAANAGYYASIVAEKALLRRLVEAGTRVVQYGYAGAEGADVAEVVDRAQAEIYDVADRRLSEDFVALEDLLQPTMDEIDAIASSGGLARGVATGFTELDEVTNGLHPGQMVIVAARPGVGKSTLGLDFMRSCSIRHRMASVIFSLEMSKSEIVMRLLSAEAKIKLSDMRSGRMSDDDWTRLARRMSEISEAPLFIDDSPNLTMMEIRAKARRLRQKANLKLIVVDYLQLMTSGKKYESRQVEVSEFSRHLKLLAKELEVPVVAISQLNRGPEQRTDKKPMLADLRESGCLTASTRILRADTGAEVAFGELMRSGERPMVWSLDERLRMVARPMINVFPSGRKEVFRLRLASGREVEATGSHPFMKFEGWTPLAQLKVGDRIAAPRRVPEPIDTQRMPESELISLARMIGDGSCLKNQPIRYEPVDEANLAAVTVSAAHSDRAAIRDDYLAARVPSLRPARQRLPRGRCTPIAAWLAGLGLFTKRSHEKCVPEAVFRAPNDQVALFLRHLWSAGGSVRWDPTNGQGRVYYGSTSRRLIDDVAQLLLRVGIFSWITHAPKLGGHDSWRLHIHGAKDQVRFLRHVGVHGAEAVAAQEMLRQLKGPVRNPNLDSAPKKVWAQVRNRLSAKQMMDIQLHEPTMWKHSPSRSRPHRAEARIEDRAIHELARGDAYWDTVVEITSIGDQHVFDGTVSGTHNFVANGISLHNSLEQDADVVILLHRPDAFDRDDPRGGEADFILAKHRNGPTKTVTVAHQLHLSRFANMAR

Protein RecA = molecular target: T2, Protein RecA (Mycobacterium tuberculosis, UniProt P9WHJ3); test: Fluorescence Cell-Free Homogeneous Dose Retest to Identify Inhibitors of RecA-Intein Splicing Activity. [Related pubchem assays (depositor defined):AID2097, AID2223, AID489010, AID492950]; format: functional
T2 sequence (P9WHJ3 whole entry): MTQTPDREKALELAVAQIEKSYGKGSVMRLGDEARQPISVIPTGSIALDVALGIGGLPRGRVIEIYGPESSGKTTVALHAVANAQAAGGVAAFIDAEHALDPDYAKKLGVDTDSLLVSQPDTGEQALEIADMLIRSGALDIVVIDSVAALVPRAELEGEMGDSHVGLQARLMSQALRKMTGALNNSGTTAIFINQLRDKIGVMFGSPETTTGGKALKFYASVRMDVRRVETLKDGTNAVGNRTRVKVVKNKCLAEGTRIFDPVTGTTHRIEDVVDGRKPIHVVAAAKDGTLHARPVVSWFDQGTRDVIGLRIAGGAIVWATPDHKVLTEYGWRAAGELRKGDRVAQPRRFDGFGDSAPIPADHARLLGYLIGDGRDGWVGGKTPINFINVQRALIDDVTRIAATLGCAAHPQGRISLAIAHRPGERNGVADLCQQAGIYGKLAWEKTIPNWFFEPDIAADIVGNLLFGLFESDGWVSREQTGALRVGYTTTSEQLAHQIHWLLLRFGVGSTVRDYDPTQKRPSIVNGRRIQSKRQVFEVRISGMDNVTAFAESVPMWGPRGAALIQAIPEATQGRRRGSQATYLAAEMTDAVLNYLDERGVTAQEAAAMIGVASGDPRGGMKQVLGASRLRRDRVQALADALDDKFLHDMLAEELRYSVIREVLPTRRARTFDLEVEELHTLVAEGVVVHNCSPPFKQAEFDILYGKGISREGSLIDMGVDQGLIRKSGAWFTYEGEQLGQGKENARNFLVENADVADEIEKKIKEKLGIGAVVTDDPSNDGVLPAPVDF

[2] = viability of uninfected HEp-2 cells – cell-based, HTS, cytotoxicity control for RSV inhibitor project, dose response (AID 2410); format: functional; conditions: human respiratory syncytial virus
[3] = reduction of Shn3 3'UTR-driven luciferase in osteoblasts – cell-based, Clone20 osteoblasts, firefly luciferase, cherry-picked, dose response (AID 624132); format: functional;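 note: firefly luciferase luminescence from reporter carrying the Shn3 3'UTR in osteoblasts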
[4] = non-specific 3'UTR reporter inhibition in Clone20-Shn3RL – cell-based, Renilla luciferase, cherry-picked, counter-screen for Shn3 inhibitor project, dose response (AID 624133); format: functional
[5] = test system: Streptococcus sp. 'group A'; test: Streptococcus pyogenes SK(-)GAS viability under kanamycin – luminescence, BacTiterGlo, confirmation, counter-screen for streptokinase expression inhibitor project, dose response (AID 1900); format: functional, organism-based
Streptokinase A = molecular target: T3, Streptokinase A (Streptococcus pyogenes serotype M1, UniProt P10520); test: viability-normalized secreted streptokinase activity reduction – plasminogen activation absorbance, OD405, dose response (AID 1914); format: functional, Streptococcus pyogenes M1 GAS;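 note: secreted streptokinase activity via plasminogen activation per viability signal from cell pellet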
T3 sequence (P10520 whole entry): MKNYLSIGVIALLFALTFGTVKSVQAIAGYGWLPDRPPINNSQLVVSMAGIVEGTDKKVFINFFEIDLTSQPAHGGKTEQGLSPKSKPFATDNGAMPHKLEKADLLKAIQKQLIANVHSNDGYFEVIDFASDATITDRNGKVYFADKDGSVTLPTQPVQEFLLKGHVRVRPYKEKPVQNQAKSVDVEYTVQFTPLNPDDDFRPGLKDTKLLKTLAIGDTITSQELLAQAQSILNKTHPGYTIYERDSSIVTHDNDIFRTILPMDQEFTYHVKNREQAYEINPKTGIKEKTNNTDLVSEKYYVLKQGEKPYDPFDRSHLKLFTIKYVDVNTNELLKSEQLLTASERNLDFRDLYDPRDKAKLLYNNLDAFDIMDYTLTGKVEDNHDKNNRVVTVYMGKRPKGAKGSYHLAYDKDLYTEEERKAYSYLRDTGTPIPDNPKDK

Streptococcus = test: GAS UMAA2166 growth inhibition – luminescence, BacTiterGlo, counter-screen for streptokinase expression inhibitor project, dose response (AID 1915); format: functional, organism-based;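 note: potency for reduction of bacterial viability or growth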
INS1 = test: INS-1E survival protection against cytokine death – cell-based, luminescence, retest, dose response (AID 449756); format: functional; conditions: Rattus norvegicus;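 note: cell death triggered by IL-1 beta plus TNF-alpha plus IFN-gamma mixture; protective hits raise ATP signal compared with cytokine alone wells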
Protein skinhead-1 = molecular target: T4, Protein skinhead-1 (Caenorhabditis elegans, UniProt P34707); format: functional
T4 sequence (P34707 whole entry): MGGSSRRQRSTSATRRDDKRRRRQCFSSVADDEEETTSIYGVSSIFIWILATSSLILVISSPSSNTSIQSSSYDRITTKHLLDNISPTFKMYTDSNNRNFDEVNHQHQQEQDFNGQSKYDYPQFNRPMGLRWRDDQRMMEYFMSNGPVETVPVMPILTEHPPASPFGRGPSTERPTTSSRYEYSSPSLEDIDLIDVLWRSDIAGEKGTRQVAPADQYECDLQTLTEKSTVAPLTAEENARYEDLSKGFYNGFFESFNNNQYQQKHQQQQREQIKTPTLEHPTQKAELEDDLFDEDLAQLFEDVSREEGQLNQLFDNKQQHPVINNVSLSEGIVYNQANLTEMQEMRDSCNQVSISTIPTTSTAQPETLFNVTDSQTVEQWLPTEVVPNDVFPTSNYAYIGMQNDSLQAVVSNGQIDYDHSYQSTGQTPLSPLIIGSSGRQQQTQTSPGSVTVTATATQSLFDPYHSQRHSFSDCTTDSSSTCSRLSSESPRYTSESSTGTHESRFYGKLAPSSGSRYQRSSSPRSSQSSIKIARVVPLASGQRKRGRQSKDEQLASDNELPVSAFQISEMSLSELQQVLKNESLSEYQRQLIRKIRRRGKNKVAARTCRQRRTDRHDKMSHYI

[6] = Luminescence Cell-Based Dose Response HTS to Identify Activators of Luciferase Translation or Activity in H4 […] Cells. [Related pubchem assays: 1829 (Project Summary), 1814 (Primary HTS)]; format: functional
H4 = test: Luminescence Cell-Based Dose Response HTS to Identify Activators of 5'UTR Stem-Loop Driven Prion Protein mRNA Translation in H4 Neuroglioblastoma Cells. [Related pubchem assays: 1829 (Project Summary), 1814 (Primary HTS)]; format: functional; conditions: Homo sapiens

## O=C(NC1CCCC1)C(c1ccc(F)cc1)N(Cc1ccc(F)cc1)C(=O)CCl (stereo unspecified)
[1]
  AC50: 4.67 µM (active)
Protein RecA
  EC50: 0.557 µM (active)

## CC(=O)C(C)Oc1ccc2c3c(c(=O)oc2c1)CCCC3 (stereo unspecified)
[2]
  CC50: 31.8 µM (active)

## O=C(Nc1ccc(S(=O)(=O)N2CCCCC2)cc1)C1CC(=O)N(c2ccc(Cl)cc2)C1 (stereo unspecified)
[2]
  CC50: 19.9 µM (active)

## COc1cccc(NC(=O)Nc2nnc(N3C(C)CCCC3C)s2)c1 (stereo unspecified)
[2]
  CC50: > 50 µM (active)

## CCOC(=O)C1CCN(C(=O)c2sc3nc(C)nc(N4CCC(C)CC4)c3c2C)CC1
[3]
  AC50: 5.26 µM (active)
[4]
  AC50: 9.01 µM (active)

## O=C(Nc1ccc2ccccc2c1)c1ccc(NS(=O)(=O)c2ccc(Br)s2)cc1
[2]
  CC50: > 50 µM (active)
[5]
  EC50: 2 µM (active)
Streptokinase A
  EC50: > 150 µM (not active)
Streptococcus
  EC50: 5.03 µM (active)

## COc1ccc(C2=NN(c3nc(C)cc(C)n3)C(=O)C2)cc1
[1]
  AC50: 4.53 µM (active)
Protein RecA
  EC50: 2.81 µM (active)

## N#Cc1c(Nc2ccccc2)sc(C(=O)c2ccc(F)cc2)c1N
INS1
  AC50: 20.9 µM (active)

## Cc1c(NC(=O)/C(C#N)=C/c2ccc(-c3ccc(Cl)c(Cl)c3)o2)c(=O)n(-c2ccccc2)n1C
[2]
  CC50: 13.3 µM (active)
Protein skinhead-1
  IC50: > 100 µM (inactive)

## Cc1ccccc1C1CCCN(C(=O)c2cc(COc3c(F)cccc3F)on2)C1 (stereo unspecified)
[2]
  CC50: 21.6 µM (active)

## O=[N+]([O-])c1cccc(-c2c(-c3ccccc3)ncc3cc(F)ccc23)c1
Protein skinhead-1
  IC50: 88.7 µM (inactive)

## Clc1ccccc1-c1ncc(-c2ccccc2)o1
Protein skinhead-1
  IC50: 37.3 µM (active)

## C[C@@H]1CC=C[C@H]2[C@H]1C(=O)N(Cc1ccccc1)[C@H]2c1ccc(C(F)(F)F)cc1
[1]
  AC50: 22.3 µM (active)
Protein RecA
  EC50: 87 µM (active)

## COCCn1cnnc1SCC(=O)Nc1cccc(S(=O)(=O)N2CCCCC2)c1
Protein skinhead-1
  IC50: > 100 µM (inactive)

## CC1(c2ccccc2)ON(c2ccccc2C(F)(F)F)C1=O (stereo unspecified)
[2]
  CC50: 49.9 µM (active)

## Cc1n[nH]c2c1C(CCc1ccccc1)C(C#N)=C(N)O2 (stereo unspecified)
[1]
  AC50: 24.9 µM (active)
Protein RecA
  EC50: 6.58 µM (active)

## N#Cc1cc2c(nc1SCC(=O)Nc1sc3c(c1C#N)CCC3)CCCC2
[6]
  EC50: > 120 µM (not active)
H4
  EC50: 16 µM (active)

## Cc1ccc2sc3ccc(NC(=O)c4ccccc4Cl)cc3c(=O)c2c1
[2]
  CC50: 15.9 µM (active)

## Cc1ccc(OCCn2cc(C#N)c3ccccc32)cc1
[2]
  CC50: 28.8 µM (active)

## Cc1ccccc1Oc1cc(NC(=O)CCCn2nc(C)c([N+](=O)[O-])c2C)cc([N+](=O)[O-])c1
INS1
  AC50: 6.96 µM (active)

## COc1ccc2ccc3c(c2c1)N=C[C@]1(O3)N(C)c2ccccc2C1(C)C
[5]
  EC50: 35.4 µM (active)
Streptokinase A
  EC50: 3.17 µM (active)
Streptococcus
  EC50: > 150 µM (not active)
[1]
  AC50: > 380 µM (inactive)
Protein RecA
  EC50: 3.66 µM (active)

## CC1CCc2c(sc3nc(CSc4nc[nH]n4)nc(O)c23)C1 (stereo unspecified)
[2]
  CC50: 24.2 µM (active)

## O=c1cc(C2CCNCC2)[nH][nH]1
[1]
  AC50: 3.73 µM (active)
Protein RecA
  EC50: 1.41 µM (active)

## COc1ccc(Br)cc1CN(C)CC(O)COc1ccc(Br)cc1 (stereo unspecified)
Protein skinhead-1
  IC50: > 100 µM (inactive)

## O=C1/C(=C/c2cccs2)CCc2ccccc21
Protein skinhead-1
  IC50: 18.6 µM (active)

## CCOc1ccc2cc(/C=C/C(=O)c3ccco3)c(Cl)nc2c1
[2]
  CC50: 47.7 µM (active)

## CCCCOc1ccc(C(=O)NC)cc1
Protein skinhead-1
  IC50: > 100 µM (inactive)

## COc1ccc(-n2c(=O)c3ccccc3c3ccccc3c2=O)cc1
[1]
  AC50: 10.1 µM (active)
Protein RecA
  EC50: 23.3 µM (active)

## Cc1cccc(C(C)(C)C)c1OCCN1CCCC1
[3]
  AC50: 34.2 µM (active)
[4]
  AC50: 9.87 µM (active)

## O=c1c2ccccc2oc2ccc(Oc3ccccc3)cc12
Protein skinhead-1
  IC50: 22.5 µM (active)

## Cc1ccc(NC2=NC(=O)/C(=C\c3ccc(C)s3)S2)cc1
Protein skinhead-1
  IC50: > 100 µM (inactive)

## COc1ccccc1N(Cc1ccccc1)S(=O)(=O)c1cccc(C(=O)Nc2ccccn2)c1
[2]
  CC50: 11.6 µM (active)

## Cc1c(C(C)(C)O)[nH]c2ccc(C(F)(F)F)cc12
[2]
  CC50: 33.8 µM (active)

## O=C(CCN1C(=O)/C(=C/c2cccs2)SC1=S)Nc1cccc(O)c1
[1]
  AC50: 1.64 µM (active)
Protein RecA
  EC50: 125 µM (active)

## N#CC1(Nc2ccc(-c3ccc(Cl)cc3)cc2)CCCC1
Protein skinhead-1
  IC50: 26.1 µM (active)

## C=CCC1CCCCC1=C(C#N)c1ccccc1 (stereo unspecified)
Protein skinhead-1
  IC50: > 100 µM (inactive)

## Cc1[nH]n(C)c(=O)c1C(=O)c1c(-c2ccccc2Cl)noc1C
[1]
  AC50: 6.51 µM (active)
Protein RecA
  EC50: 2.61 µM (active)

## COc1cccc(/C=N/NC(=O)c2cc(-c3ccccn3)nc3ccccc23)c1O
INS1
  AC50: 1.8 µM (active)

## O=c1sc(/C=N/Nc2ccccc2)c(Cl)n1Cc1ccccc1
[6]
  EC50: > 120 µM (not active)
H4
  EC50: 21.4 µM (active)

## Cn1cc(/C=N\NC(=O)c2cccs2)c2ccccc21
[6]
  EC50: 50.3 µM (active)
H4
  EC50: 37.7 µM (active)
